IC50 data for 22 compounds are collected here from patent US20260365653A1, “IRREVERSIBLE MUTEGFR INHIBITORS” (Bayer Aktiengesellschaft, priority 2022, published 2026).

The target in test [1] is T1, mutEGFR (D770_N771insNPG, T790) (Homo sapiens, UniProt P00533, INS770NPG/T790M).
T1 construct: exact insNPG construct not described; in-house EGFR proteins were N-terminal GST fusions from baculovirus/insect cells (borders R669-A1210 given only for WT, insSVD, insASV)
The experiment in a line: mutEGFR (D770_N771insNPG, T790) kinase assay. It counts as biochemical. The following applies: Table 2a, D770_N771insNPG. An excerpt:
The different EGFR proteins used in the biochemical kinase activity inhibition assays were generated inhouse by expression in insect cells using Baculo Virus system and subsequent purification as described in the following paragraphs.
The cDNAs encoding the various protein sequences from human EGFR human (P00533) were optimized for expression in eukaryotic cells and synthesized by the GeneArt Technology at Life Technologies.

For another test, the system named is BA/F3 (insSVD) cells. The experiment in a line: Ba/F3-EGFR-insSVD cell survival assay (Cell Titer-Glo). It counts as cell-based. To be noted: Mus musculus, BaF3, 48 h, Table 3a, cell survival, Cell Titer-Glo, with 10 ng/ml EGF, without IL-3. In a few lines:
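CellTiter-Glo luminescence read after 48 h compound exposure at 37° C. Cells: IL-3-independent Ba/F3 lines transduced with EGFR-insSVD or EGFR-insSVD T790M, maintained on 10 ng/ml EGF and seeded at 4000 per well.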

Test [2] addresses T2, mutEGFR (D770_N771insSVD) (Homo sapiens, UniProt P00533, DUP768-770).
T2 construct: GST-EGFR #3 (SVD between D770 and N771); made in house; host or cells: Sf9 insect cells (baculovirus)
In words: Exon20-Mutant-EGFR (D770_N771insSVD) kinase assay (TR-FRET). It counts as biochemical. To be noted: mutEGFR (D770_N771insSVD) kinase assay IC50, Table 2a; D770_N771insSVD; 2 mM ATP. In general terms: In TR-FRET formats the signal depends on donor and acceptor labels being close together.

The IC50 is the concentration at which inhibition is half-maximal. Read a low IC50 as greater potency in that assay.

T2 sequence (P00533 with tags, fused parts or gaps DUP768-770): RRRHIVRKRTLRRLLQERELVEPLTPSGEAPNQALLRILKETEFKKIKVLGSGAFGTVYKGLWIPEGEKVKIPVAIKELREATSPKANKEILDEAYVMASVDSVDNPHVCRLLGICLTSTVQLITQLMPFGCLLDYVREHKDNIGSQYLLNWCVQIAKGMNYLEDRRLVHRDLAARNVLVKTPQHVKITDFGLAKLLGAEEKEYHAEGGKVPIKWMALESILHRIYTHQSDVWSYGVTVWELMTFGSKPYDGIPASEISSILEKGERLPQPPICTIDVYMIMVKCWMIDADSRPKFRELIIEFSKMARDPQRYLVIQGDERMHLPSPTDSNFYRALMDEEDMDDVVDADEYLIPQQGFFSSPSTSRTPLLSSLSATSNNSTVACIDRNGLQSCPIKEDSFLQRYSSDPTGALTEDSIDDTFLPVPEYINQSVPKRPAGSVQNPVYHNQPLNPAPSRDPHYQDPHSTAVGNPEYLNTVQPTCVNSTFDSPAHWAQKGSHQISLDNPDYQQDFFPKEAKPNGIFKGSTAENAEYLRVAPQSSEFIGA
T1 sequence (P00533 with tags, fused parts or gaps INS770NPG/T790M limits assumed): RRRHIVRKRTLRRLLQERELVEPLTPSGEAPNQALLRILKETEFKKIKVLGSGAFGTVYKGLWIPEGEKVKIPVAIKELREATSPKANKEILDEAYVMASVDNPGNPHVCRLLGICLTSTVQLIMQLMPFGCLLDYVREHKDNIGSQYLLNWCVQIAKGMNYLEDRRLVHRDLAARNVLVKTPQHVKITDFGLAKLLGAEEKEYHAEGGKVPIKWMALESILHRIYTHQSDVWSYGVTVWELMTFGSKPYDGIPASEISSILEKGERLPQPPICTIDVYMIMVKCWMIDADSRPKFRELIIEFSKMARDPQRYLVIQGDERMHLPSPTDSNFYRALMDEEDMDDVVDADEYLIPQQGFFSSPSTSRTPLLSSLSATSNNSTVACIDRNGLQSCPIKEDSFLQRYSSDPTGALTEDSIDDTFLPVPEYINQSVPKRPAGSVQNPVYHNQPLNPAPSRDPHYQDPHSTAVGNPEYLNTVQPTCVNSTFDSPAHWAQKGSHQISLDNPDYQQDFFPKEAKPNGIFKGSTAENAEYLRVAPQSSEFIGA

Turning to `O=C(C#CCN1CCOCC1)N1CCn2nc(-c3ccc(F)cc3)c(-c3ccncc3)c2C1` [Example 68, 1-[2-(4-fluorophenyl)-3-(pyridin-4-yl)-6,7-dihydropyrazolo[1,5-a]pyrazin-5(4H)-yl]-4-(morpholin-4-yl) but-2-yn-1-one], the values for the concentration for half-maximal inhibition (IC50) (in test [1]; with BA/F3 (insSVD) cells; in test [2]) were 11.9 nM, 60.2 nM and 5.33 nM, respectively.
The like results for `CCN(CC)C/C=C/C(=O)N1CCn2nc(-c3ccc(F)cc3)c(-c3ccncc3)c2C1` [Example 69, (2E)-4-(diethylamino)-1-[2-(4-fluorophenyl)-3-(pyridin-4-yl)-6,7-dihydropyrazolo[1,5-a]pyrazin-5(4H)-yl]but-2-en-1-one] were, in that order, 4.78 nM, 194 nM and 1.73 nM.
On to `O=C(/C=C/CO)N1CCn2nc(-c3ccc(F)cc3)c(-c3ccncc3)c2C1` [Example 70, (2E)-1-[2-(4-fluorophenyl)-3-(pyridin-4-yl)-6,7-dihydropyrazolo[1,5-a]pyrazin-5(4H)-yl]-4-hydroxybut-2-en-1-one], for which the concentration for half-maximal inhibition (IC50) in test [1] stood at 90.2 nM; with BA/F3 (insSVD) cells, 862 nM; in test [2] it was 26.1 nM.
As for `CCN(C)C/C=C/C(=O)N1CCn2nc(-c3ccc(F)cc3)c(-c3ccncc3)c2C1` [Example 71, (2E)-4-[ethyl(methyl)amino]-1-[2-(4-fluorophenyl)-3-(pyridin-4-yl)-6,7-dihydropyrazolo[1,5-a]pyrazin-5(4H)-yl]but-2-en-1-one], the figures for the 50% inhibitory concentration (IC50) (in test [1]; in the test on BA/F3 (insSVD) cells; in test [2]) were 3.09 nM, 120 nM and 0.907 nM, respectively.
For `CN(C)CC#CC(=O)N1CCn2nc(-c3ccc(Cl)cc3F)c(-c3ccncc3)c2C1` [Example 72, 1-[2-(4-chloro-2-fluorophenyl)-3-(pyridin-4-yl)-6,7-dihydropyrazolo[1,5-a]pyrazin-5(4H)-yl]-4-(dimethylamino)but-2-yn-1-one], the figures for the half-inhibitory concentration (IC50) (in test [1]; with BA/F3 (insSVD) cells; in test [2]) were 0.3 nM, 17.9 nM and 0.211 nM, respectively.
With `O=C(/C=C/CF)N1CCn2nc(-c3ccc(Cl)cc3F)c(-c3ccncc3)c2C1` [Example 73, (2E)-1-[2-(4-chloro-2-fluorophenyl)-3-(pyridin-4-yl)-6,7-dihydropyrazolo[1,5-a]pyrazin-5(4H)-yl]-4-fluorobut-2-en-1-one], the 50% inhibitory concentration (IC50) in test [1] worked out at 5.1 nM; in the test on BA/F3 (insSVD) cells it was 61 nM; in test [2], 1.09 nM.
In the case of `O=C(/C=C/C(F)F)N1CCn2nc(-c3ccc(Cl)cc3F)c(-c3ccncc3)c2C1` [Example 74, (2E)-1-[2-(4-chloro-2-fluorophenyl)-3-(pyridin-4-yl)-6,7-dihydropyrazolo[1,5-a]pyrazin-5(4H)-yl]-4,4-difluorobut-2-en-1-one], the IC50 in test [1] came out at 0.807 nM; in the test with BA/F3 (insSVD) cells it was 34 nM; in test [2] it was 0.183 nM.
`O=C(/C=C/Cl)N1CCn2nc(-c3ccc(Cl)cc3F)c(-c3ccncc3)c2C1` [Example 75, (2E)-3-chloro-1-[2-(4-chloro-2-fluorophenyl)-3-(pyridin-4-yl)-6,7-dihydropyrazolo[1,5-a]pyrazin-5(4H)-yl]prop-2-en-1-one]: the IC50 in test [1] was determined as 0.995 nM; in the test on BA/F3 (insSVD) cells, 135 nM; in test [2], 0.197 nM.
For `CN1CC=C(C(=O)N2CCn3nc(-c4ccc(Cl)cc4F)c(-c4ccncc4)c3C2)C1` [Example 76, [2-(4-chloro-2-fluorophenyl)-3-(pyridin-4-yl)-6,7-dihydropyrazolo[1,5-a]pyrazin-5(4H)-yl](1-methyl-2,5-dihydro-1H-pyrrol-3-yl) methanone], the half-inhibitory concentration (IC50) in test [1] amounted to 77.3 nM; in the test on BA/F3 (insSVD) cells, 666 nM; in test [2] it was 30.3 nM.
Regarding `O=C(/C=C/CN1CCC1)N1CCn2nc(-c3ccc(Cl)cc3F)c(-c3ccncc3)c2C1` [Example 77, (2E)-4-(azetidin-1-yl)-1-[2-(4-chloro-2-fluorophenyl)-3-(pyridin-4-yl)-6,7-dihydropyrazolo[1,5-a]pyrazin-5(4H)-yl]but-2-en-1-one], the concentration for half-maximal inhibition (IC50) is 1.6 nM in test [1], 25.9 nM in the test with BA/F3 (insSVD) cells and 0.347 nM in test [2].
The like results for `O=C(/C=C/CF)N1CCn2nc(-c3ccc(F)cc3)c(-c3ccncc3)c2C1` [Example 78, (2E)-4-fluoro-1-[2-(4-fluorophenyl)-3-(pyridin-4-yl)-6,7-dihydropyrazolo[1,5-a]pyrazin-5(4H)-yl]but-2-en-1-one] were, in that order, 15.4 nM, 115 nM and 3.86 nM.
In the same order, the values of `O=C(/C=C/CN1CCCC1)N1CCn2nc(-c3ccc(F)cc3)c(-c3ccncc3)c2C1` [Example 79, (2E)-1-[2-(4-fluorophenyl)-3-(pyridin-4-yl)-6,7-dihydropyrazolo[1,5-a]pyrazin-5(4H)-yl]-4-(pyrrolidin-1-yl) but-2-en-1-one] are 2.51 nM, 62.9 nM and 1.47 nM.
Consider `CO[C@H]1CCN(C/C=C/C(=O)N2CCn3nc(-c4ccc(F)cc4)c(-c4ccncc4)c3C2)C1` [Example 83, (2E)-1-[2-(4-fluorophenyl)-3-(pyridin-4-yl)-6,7-dihydropyrazolo[1,5-a]pyrazin-5(4H)-yl]-4-[(3S)-3-methoxypyrrolidin-1-yl]but-2-en-1-one], for which the IC50 in test [1] turned out to be 3.53 nM; with BA/F3 (insSVD) cells, 132 nM; in test [2] it was 0.976 nM.
In the case of `O=C(/C=C/CN1CC(F)(F)C1)N1CCn2nc(-c3ccc(F)cc3)c(-c3ccncc3)c2C1` [Example 84, (2E)-4-(3,3-difluoroazetidin-1-yl)-1-[2-(4-fluorophenyl)-3-(pyridin-4-yl)-6,7-dihydropyrazolo[1,5-a]pyrazin-5(4H)-yl]but-2-en-1-one], the figures for the IC50 (in test [1]; in the test with BA/F3 (insSVD) cells; in test [2]) were 50.6 nM, 1230 nM and 13.4 nM, respectively.
As for `O=C(C#CCN1CCOCC1)N1CCn2nc(-c3ccc(Cl)cc3F)c(-c3ccncc3)c2C1` [Example 85, 1-[2-(4-chloro-2-fluorophenyl)-3-(pyridin-4-yl)-6,7-dihydropyrazolo[1,5-a]pyrazin-5(4H)-yl]-4-(morpholin-4-yl) but-2-yn-1-one], the IC50 in test [1] was determined as 2.43 nM; in the test on BA/F3 (insSVD) cells, 34.6 nM; in test [2], 0.731 nM.
Turning to `CC(C)(C)OC(=O)NC1(C#CC(=O)N2CCn3nc(-c4ccc(F)cc4)c(-c4ccncc4)c3C2)CC1` [Example 86, tert-butyl (1-{3-[2-(4-fluorophenyl)-3-(pyridin-4-yl)-6,7-dihydropyrazolo[1,5-a]pyrazin-5(4H)-yl]-3-oxoprop-1-yn-1-yl}cyclopropyl) carbamate], the figures for the IC50 (in test [1]; with BA/F3 (insSVD) cells; in test [2]) were 237 nM, 971 nM and 122 nM, respectively.
In the case of `NC1(C#CC(=O)N2CCn3nc(-c4ccc(F)cc4)c(-c4ccncc4)c3C2)CC1` [Example 89, 3-(1-aminocyclopropyl)-1-[2-(4-fluorophenyl)-3-(pyridin-4-yl)-6,7-dihydropyrazolo[1,5-a]pyrazin-5(4H)-yl]prop-2-yn-1-one], the IC50 in test [1] was 8.7 nM; in the test with BA/F3 (insSVD) cells, 5060 nM; in test [2] it was 6.06 nM.
As for `CC(C)(C)OC(=O)NCC#CC(=O)N1CCn2nc(-c3ccc(F)cc3)c(-c3ccncc3)c2C1` [Example 90, tert-butyl {4-[2-(4-fluorophenyl)-3-(pyridin-4-yl)-6,7-dihydropyrazolo[1,5-a]pyrazin-5(4H)-yl]-4-oxobut-2-yn-1-yl}carbamate], the half-maximal inhibitory concentration (IC50) in test [1] stood at 5.34 nM; with BA/F3 (insSVD) cells, 166 nM; in test [2], 2.08 nM.
Take `NCC#CC(=O)N1CCn2nc(-c3ccc(F)cc3)c(-c3ccncc3)c2C1` [Example 91, 4-amino-1-[2-(4-fluorophenyl)-3-(pyridin-4-yl)-6,7-dihydropyrazolo[1,5-a]pyrazin-5(4H)-yl]but-2-yn-1-one]: the concentration for half-maximal inhibition (IC50) in test [1] was found to be 52.8 nM; with BA/F3 (insSVD) cells it was 1410 nM; in test [2], 26.3 nM.
Turning to `C=CC(=O)N1CCn2nc(Nc3ccc(Cl)cc3F)c(-c3ccnc4[nH]cc(C)c34)c2C1` [Example 92, 1-[2-(4-chloro-2-fluoroanilino)-3-(3-methyl-1H-pyrrolo[2,3-b]pyridin-4-yl)-6,7-dihydropyrazolo[1,5-a]pyrazin-5(4H)-yl]prop-2-en-1-one], the IC50 was 53.6 nM in test [1], 125 nM in the test with BA/F3 (insSVD) cells and 24.6 nM in test [2].
With `C=CC(=O)N1CCn2nc(Nc3ccc(C(F)(F)F)cc3)c(-c3ccnc4[nH]cc(C)c34)c2C1` [Example 94, 1-[3-(3-methyl-1H-pyrrolo[2,3-b]pyridin-4-yl)-2-[4-(trifluoromethyl)anilino]-6,7-dihydropyrazolo[1,5-a]pyrazin-5(4H)-yl]prop-2-en-1-one], the IC50 in test [1] turned out to be 403 nM; in the test with BA/F3 (insSVD) cells, 2760 nM; in test [2], 213 nM.
In the same order, the values of `C=CC(=O)N1CCn2nc(Nc3ccc(Cl)cc3F)c(-c3ccncc3)c2C1` [Example 95, 1-[2-(4-chloro-2-fluoroanilino)-3-(pyridin-4-yl)-6,7-dihydropyrazolo[1,5-a]pyrazin-5(4H)-yl]prop-2-en-1-one] are 99.5 nM, 1210 nM and 40.6 nM.
